Experimental data from the PolyMetriX glass transition set.
± gives the standard deviation of the reports.

Tests used:
[1] = not given; remark: listed apart in the source
[2] = not given; remark: listed apart in the source

| Compound | glass transition temperature [°C] | further results |
| --- | --- | --- |
| *CC(*)Br (repeat unit) [Poly(vinyl bromide)] | 100 | – |
| *CC(*)C(=O)OCC#N (repeat unit) [Poly(cyanomethyl acrylate)] | 23 | – |
| *CC(*)C(=O)CC (repeat unit) [Poly(vinyl ethyl ketone)] | -60 | – |
| *CC(*)C(=O)NCCCCCCCC (repeat unit) [Poly(N-octyl acrylamide)] | -53 | – |
| *CC=C(C*)CCC (repeat unit) [Poly(2-n-propyl-1 ,4-butadiene) ] | – | glass transition temperature [1]: -77.6 ± 0.7 °C |
| *c1ccc2c3ccc(-c4sc(-c5ccc(-c6cc(CCCCCC)c(*)s6)c6nsnc56)cc4CCCCCC)cc3n(C(CCCCCCCC)CCCCCCCC)c2c1 (repeat unit) | – | glass transition temperature [2]: 74.00 °C |
| *c1ccc(-c2ccc(OCCCCCCCCCC)c(-c3cc(*)ccc3OCCCCCCCCCC)c2)cc1 (repeat unit) | – | glass transition temperature [2]: 58.00 °C |
| *c1nc(C(F)(F)C(F)(F)OC(F)(F)F)nc(C(F)(F)C(F)(F)C(F)(F)C(*)(F)F)n1 (repeat unit) [Perfluoropolymer 2 ] | – | glass transition temperature [1]: -18.6 ± 0.7 °C |
